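Growth conditions: 96-well plates. Treatment: test compound, 48 hours, 5 concentrations. Analysis: linear interpolation between bracketing concentrations; unreached endpoints set to highest concentration. The concentration for 50% growth inhibition is given as GI50. TGI denotes the concentration required for complete inhibition of growth.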
How the values were obtained:
Test in all cases: NCI tumour cell line growth inhibition, 48 h
SNB-19 CNS = system: SNB-19 CNS
CCRF-CEM leukemia = system: CCRF-CEM leukemia
ACHN renal = system: ACHN renal
LOX IMVI melanoma = system: LOX IMVI melanoma
OVCAR-8 ovarian = system: OVCAR-8 ovarian
SF-268 CNS = system: SF-268 CNS
U251 CNS = system: U251 CNS
BT-549 breast = system: BT-549 breast
HOP-92 NSCLC = system: HOP-92 NSCLC
MOLT-4 leukemia = system: MOLT-4 leukemia
SN12C renal = system: SN12C renal
HL-60(TB) leukemia = system: HL-60(TB) leukemia
K-562 leukemia = system: K-562 leukemia
SNB-75 CNS = system: SNB-75 CNS
SR leukemia = system: SR leukemia
HOP-62 NSCLC = system: HOP-62 NSCLC
PC-3 prostate = system: PC-3 prostate
RPMI-8226 leukemia = system: RPMI-8226 leukemia
MCF7 breast = system: MCF7 breast
IGROV1 ovarian = system: IGROV1 ovarian
HS 578T breast = system: HS 578T breast
RXF 393 renal = system: RXF 393 renal
UACC-257 melanoma = system: UACC-257 melanoma
HT29 colon = system: HT29 colon
SK-MEL-28 melanoma = system: SK-MEL-28 melanoma
HCT-116 colon = system: HCT-116 colon
A549 NSCLC = system: A549 NSCLC
OVCAR-4 ovarian = system: OVCAR-4 ovarian
HCT-15 colon = system: HCT-15 colon
SF-539 CNS = system: SF-539 CNS
SK-MEL-2 melanoma = system: SK-MEL-2 melanoma
SK-OV-3 ovarian = system: SK-OV-3 ovarian
SF-295 CNS = system: SF-295 CNS
HCC-2998 colon = system: HCC-2998 colon
M14 melanoma = system: M14 melanoma
TK-10 renal = system: TK-10 renal
NCI-H226 lung = system: NCI-H226 lung
SW-620 colon = system: SW-620 colon
NCI-H522 lung = system: NCI-H522 lung
EKVX NSCLC = system: EKVX NSCLC
MALME-3M melanoma = system: MALME-3M melanoma
UO-31 renal = system: UO-31 renal
NCI-H460 lung = system: NCI-H460 lung
MDA-MB-435 = system: MDA-MB-435
786-0 renal = system: 786-0 renal
T-47D breast = system: T-47D breast
KM12 colon = system: KM12 colon
OVCAR-5 ovarian = system: OVCAR-5 ovarian
SK-MEL-5 melanoma = system: SK-MEL-5 melanoma
DU-145 prostate = system: DU-145 prostate
UACC-62 melanoma = system: UACC-62 melanoma
A498 renal = system: A498 renal
CAKI-1 renal = system: CAKI-1 renal
MDA-MB-231 breast = system: MDA-MB-231 breast
COLO 205 colon = system: COLO 205 colon
NCI-H23 lung = system: NCI-H23 lung
NCI/ADR-RES ovarian = system: NCI/ADR-RES ovarian

CNC(=O)c1c(NC(=O)c2cccc(C(F)(F)F)c2F)sc2c1CCC(=O)C2
GI50 (SNB-19 CNS): 361 nM
TGI (SNB-19 CNS): > 100000 nM
GI50 (CCRF-CEM leukemia): 109 nM
TGI (CCRF-CEM leukemia): > 100000 nM
GI50 (ACHN renal): 301 nM
TGI (ACHN renal): 1030 nM
GI50 (LOX IMVI melanoma): 466 nM
TGI (LOX IMVI melanoma): > 100000 nM
GI50 (OVCAR-8 ovarian): 349 nM
TGI (OVCAR-8 ovarian): > 100000 nM
GI50 (SF-268 CNS): 357 nM
TGI (SF-268 CNS): > 100000 nM
GI50 (U251 CNS): 259 nM
TGI (U251 CNS): > 100000 nM
GI50 (BT-549 breast): 406 nM
TGI (BT-549 breast): > 100000 nM
GI50 (HOP-92 NSCLC): 208 nM
TGI (HOP-92 NSCLC): 636 nM
GI50 (MOLT-4 leukemia): 341 nM
TGI (MOLT-4 leukemia): > 100000 nM
GI50 (SN12C renal): 305 nM
TGI (SN12C renal): > 100000 nM
GI50 (HL-60(TB) leukemia): 275 nM
TGI (HL-60(TB) leukemia): > 100000 nM
GI50 (K-562 leukemia): 174 nM
TGI (K-562 leukemia): > 100000 nM
GI50 (SNB-75 CNS): 163 nM
TGI (SNB-75 CNS): 794 nM
GI50 (SR leukemia): 112 nM
TGI (SR leukemia): > 100000 nM
GI50 (HOP-62 NSCLC): 777 nM
TGI (HOP-62 NSCLC): > 100000 nM
GI50 (PC-3 prostate): 110 nM
TGI (PC-3 prostate): > 100000 nM
GI50 (RPMI-8226 leukemia): 141 nM
TGI (RPMI-8226 leukemia): 676 nM
GI50 (MCF7 breast): 283 nM
TGI (MCF7 breast): > 100000 nM
GI50 (IGROV1 ovarian): 483 nM
TGI (IGROV1 ovarian): > 100000 nM
GI50 (HS 578T breast): 379 nM
TGI (HS 578T breast): > 100000 nM
GI50 (RXF 393 renal): 378 nM
TGI (RXF 393 renal): > 100000 nM

O=C(CCC(=O)N1CCOCC1)OCCCCCCSc1ccc([N+](=O)[O-])c2nonc12
GI50 (UACC-257 melanoma): 1630 nM
TGI (UACC-257 melanoma): 3660 nM
GI50 (SNB-19 CNS): 1610 nM
TGI (SNB-19 CNS): 4710 nM
GI50 (CCRF-CEM leukemia): 284 nM
TGI (CCRF-CEM leukemia): 3850 nM
GI50 (HT29 colon): 1010 nM
TGI (HT29 colon): 4270 nM
GI50 (ACHN renal): 472 nM
TGI (ACHN renal): 1680 nM
GI50 (OVCAR-8 ovarian): 827 nM
TGI (OVCAR-8 ovarian): 9250 nM
GI50 (SK-MEL-28 melanoma): 1620 nM
TGI (SK-MEL-28 melanoma): 3110 nM
GI50 (SF-268 CNS): 1650 nM
TGI (SF-268 CNS): 5250 nM
GI50 (U251 CNS): 640 nM
TGI (U251 CNS): 2700 nM
GI50 (HCT-116 colon): 410 nM
TGI (HCT-116 colon): 1670 nM
GI50 (BT-549 breast): 939 nM
TGI (BT-549 breast): 2170 nM
GI50 (A549 NSCLC): 2900 nM
TGI (A549 NSCLC): 12000 nM
GI50 (OVCAR-4 ovarian): 1820 nM
TGI (OVCAR-4 ovarian): 3800 nM
GI50 (HCT-15 colon): 267 nM
TGI (HCT-15 colon): 1120 nM
GI50 (HOP-92 NSCLC): 1240 nM
TGI (HOP-92 NSCLC): 2830 nM
GI50 (SF-539 CNS): 666 nM
TGI (SF-539 CNS): 1990 nM
GI50 (MOLT-4 leukemia): 410 nM
TGI (MOLT-4 leukemia): 3490 nM
GI50 (SK-MEL-2 melanoma): 2480 nM
TGI (SK-MEL-2 melanoma): 6680 nM
GI50 (SK-OV-3 ovarian): 3850 nM
TGI (SK-OV-3 ovarian): 16900 nM
GI50 (SF-295 CNS): 2460 nM
TGI (SF-295 CNS): 7210 nM
GI50 (HCC-2998 colon): 1680 nM
TGI (HCC-2998 colon): 3160 nM
GI50 (SN12C renal): 1010 nM
TGI (SN12C renal): 2300 nM
GI50 (M14 melanoma): 1320 nM
TGI (M14 melanoma): 2890 nM
GI50 (TK-10 renal): 4100 nM
TGI (TK-10 renal): 13300 nM
GI50 (HL-60(TB) leukemia): 313 nM
TGI (HL-60(TB) leukemia): 1620 nM
GI50 (K-562 leukemia): 259 nM
TGI (K-562 leukemia): > 100000 nM
GI50 (NCI-H226 lung): 1440 nM
TGI (NCI-H226 lung): 3810 nM
GI50 (SNB-75 CNS): 490 nM
TGI (SNB-75 CNS): 17000 nM
GI50 (SW-620 colon): 479 nM
TGI (SW-620 colon): 2280 nM
GI50 (NCI-H522 lung): 853 nM
TGI (NCI-H522 lung): 3930 nM
GI50 (SR leukemia): 239 nM
TGI (SR leukemia): 2160 nM
GI50 (EKVX NSCLC): 1550 nM
TGI (EKVX NSCLC): 3260 nM
GI50 (MALME-3M melanoma): 1150 nM
TGI (MALME-3M melanoma): 2510 nM
GI50 (UO-31 renal): 418 nM
TGI (UO-31 renal): 2260 nM
GI50 (HOP-62 NSCLC): 1740 nM
TGI (HOP-62 NSCLC): 4450 nM
GI50 (NCI-H460 lung): 1700 nM
TGI (NCI-H460 lung): 3820 nM
GI50 (MDA-MB-435): 1160 nM
TGI (MDA-MB-435): 2500 nM
GI50 (PC-3 prostate): 1600 nM
TGI (PC-3 prostate): 4190 nM
GI50 (786-0 renal): 1400 nM
TGI (786-0 renal): 4150 nM
GI50 (T-47D breast): 2030 nM
TGI (T-47D breast): 5110 nM
GI50 (KM12 colon): 2700 nM
TGI (KM12 colon): 7770 nM
GI50 (RPMI-8226 leukemia): 401 nM
TGI (RPMI-8226 leukemia): 3350 nM
GI50 (OVCAR-5 ovarian): 1580 nM
TGI (OVCAR-5 ovarian): 3250 nM
GI50 (SK-MEL-5 melanoma): 1700 nM
TGI (SK-MEL-5 melanoma): 3290 nM
GI50 (DU-145 prostate): 1400 nM
TGI (DU-145 prostate): 2710 nM
GI50 (UACC-62 melanoma): 1010 nM
TGI (UACC-62 melanoma): 2360 nM
GI50 (A498 renal): 1850 nM
TGI (A498 renal): 4260 nM
GI50 (CAKI-1 renal): 1520 nM
TGI (CAKI-1 renal): 3950 nM
GI50 (MCF7 breast): 334 nM
TGI (MCF7 breast): 1920 nM
GI50 (IGROV1 ovarian): 1010 nM
TGI (IGROV1 ovarian): 2240 nM
GI50 (MDA-MB-231 breast): 1390 nM
TGI (MDA-MB-231 breast): 3080 nM
GI50 (HS 578T breast): 1690 nM
TGI (HS 578T breast): 5990 nM
GI50 (RXF 393 renal): 574 nM
TGI (RXF 393 renal): 1960 nM
GI50 (COLO 205 colon): 1890 nM
TGI (COLO 205 colon): 4590 nM
GI50 (NCI-H23 lung): 1390 nM
TGI (NCI-H23 lung): 3000 nM
GI50 (NCI/ADR-RES ovarian): 759 nM
TGI (NCI/ADR-RES ovarian): 4440 nM

Reference: PubChem BioAssay (NCI)
